# Like-named read-outs stand apart in the source and are kept apart here. Marks after values point to notes of the source that are not given here. *1 amine or outer side, *2 acyl side, *3 side chain or, on linkers, in order; H or OH if unused. Where a SMILES comes first, the peptide text is derived from it. Bridges are numbered along the chain shown (N, C = ends). [ ]: non-standard residue; d: D form. Trp(2-yl) = O=C([C@H](Cc1c([*:3])[nH]c2ccccc12)N[*:1])[*:2]; Leu(4R-OH,5-OH) = C[C@](O)(CO)C[C@H](N)C(=O)O; dAsp(3S-OH) = N[C@@H](C(=O)O)[C@H](O)C(=O)O; cisHyp = O=C(O)[C@@H]1C[C@H](O)CN1
# Assay: Peptide toxins in the blood / toxicokinetics in beagles with biliary drainage
# Format: in vivo, beagle dogs
# Parameters: Dose normalized AUC (0–∞) / Dose normalized Cmax: unit not given here
# Details: for T1/2 / AUC (0–∞) / CL/F / Cmax / Dose normalized AUC (0–∞) / Dose normalized Cmax / MRT (0–∞) / Tmax / Vd/F: biliary drainage, plasma, mean ± SD; for T1/2: UPLC-ESI-MS/MS; for time at which toxins were detected in plasma after ingestion: beagles with biliary drainage, oral Amanita exitialis; for Vd/F: male, beagle, dog, read-out: Vz/F
# Description: The study was approved by National Institute of Occupational Health and Poison Control review board for animal experiments. Twenty-four male beagles (age, 8–10 months; weight, 10 ± 1 kg) were obtained from Beijing Institute of Xieerxin Biology Resource (Beijing, China). They were randomly divided into four groups of six animals each: control, biliary drainage, and 20 and 60 mg/kg with biliary drainage groups. The biliary drainage operation was conducted in all groups barring the control group. The dogs were dressed in homemade underwear, coats, and Elizabeth circles for a week to ensure pre-experimental acclimatization (Figure S8a–c). After determining the baseline values for biochemical indicators, the dogs were fasted for 24 h but received water ad libitum. They were anesthetized by intravenous administration of pentobarbital sodium (3%, 1 mL/kg) during the surgery. A temperature of 38–39 °C was maintained with a warming mat. After skin preservation and sterilization, the abdominal cavity was opened through the central abdomen. The abdomen was explored and blunt dissection of the common bile duct was performed (Figure S8d). The common bile duct and its branches were ligated from the intestinal side. A 7.0-Fr drainage catheter (COOK, Bloomington, IN, USA) was percutaneously inserted into the gallbladder, and a medical drainage bag was connected to the drainage catheter coming out of the abdominal cavity. Each opened layer, including the peritoneum, abdominal wall muscle, and skin, was closed with suture. The operative incision was protected with sterile gauze and a bandage, and the dogs were dressed in homemade underwear, coats, and Elizabeth circles. The drainage bag was placed in the pocket of the coat (Figure S8e). After the anesthetic wore off, the dogs were placed in cages, and food and water were provided ad libitum. The operative incision was sterilized with iodophor twice a day until stitches were removed six days after surgery. The drainage bag was replaced every day. On the eighth day after surgery, the 20 and 60 mg/kg with biliary drainage groups were orally administered a lyophilized powder of Amanita exitialis in starch capsules. In control and bile drainage group, the beagle dogs were fed with empty capsules. Immediately after dosing, the animals were placed in their cages, and food and water were provided ad libitum. Dogs were sacrificed with an overdose of sodium pentobarbital at the end of the experiment. All procedures were performed according to the ethical standards of the National Institutes of Health Guide for Animal Welfare and approved by the Institutional Animal Care and Use Committee (EAWE-2017-005).
# Peptide toxins in blood and urine samples were analyzed as described previously. Bile samples from Days 0–1, Days 1–2, Days 2–3, and Days 3–4 were collected and stored in medical drainage bags and the bile volume was recorded. Plasma and urine samples were stored at 2–8 °C until analysis for peptide toxins.
# UPLC and MS/MS parameters were as described in our previous study. The limit of detection and limit of quantitation of each toxin in the bile were 0.03 mg/kg and 0.5 mg/kg, respectively.
# Toxicokinetic parameters were described in our previous study. Measurement data are reported as mean ± standard deviation values and enumeration data are reported as percentage (%). […] SPSS 22.0 (IBM Corporation, Armonk, NY, USA, 2015) was used for statistical analysis. The criterion for statistical significance was p ≤ 0.05. Except for the biliary drainage operation, the animals and methods in our present study are in accordance with our previously published study. Thus, by directly comparing the data from this study with those from our published studies on Amanita exitialis-exposed beagles without biliary drainage, we can evaluate the impact of biliary drainage on the toxicity and toxicokinetics of Amanita exitialis in beagles.
# [1] = 0 h after ingestion, 20 mg/kg with biliary drainage group
# [2] = 0 h after ingestion, 60 mg/kg with biliary drainage group
# [3] = 60 mg/kg Amanita exitialis oral
# [4] = 0.25 h after ingestion, 20 mg/kg with biliary drainage group
# [5] = 0.25 h after ingestion, 60 mg/kg with biliary drainage group
# [6] = 0.5 h after ingestion, 20 mg/kg with biliary drainage group
# [7] = 0.5 h after ingestion, 60 mg/kg with biliary drainage group
# [8] = 1 h after ingestion, 20 mg/kg with biliary drainage group
# [9] = 1 h after ingestion, 60 mg/kg with biliary drainage group
# [10] = 1.5 h after ingestion, 20 mg/kg with biliary drainage group
# [11] = 1.5 h after ingestion, 60 mg/kg with biliary drainage group
# [12] = 2 h after ingestion, 20 mg/kg with biliary drainage group
# [13] = 2 h after ingestion, 60 mg/kg with biliary drainage group
# [14] = 3 h after ingestion, 20 mg/kg with biliary drainage group
# [15] = 3 h after ingestion, 60 mg/kg with biliary drainage group
# [16] = 4 h after ingestion, 20 mg/kg with biliary drainage group
# [17] = 4 h after ingestion, 60 mg/kg with biliary drainage group
# [18] = 5 h after ingestion, 20 mg/kg with biliary drainage group
# [19] = 5 h after ingestion, 60 mg/kg with biliary drainage group
# [20] = 6 h after ingestion, 20 mg/kg with biliary drainage group
# [21] = 6 h after ingestion, 60 mg/kg with biliary drainage group
# [22] = 8 h after ingestion, 20 mg/kg with biliary drainage group
# [23] = 8 h after ingestion, 60 mg/kg with biliary drainage group
# [24] = 10 h after ingestion, 20 mg/kg with biliary drainage group
# [25] = 10 h after ingestion, 60 mg/kg with biliary drainage group
# [26] = 12 h after ingestion, 20 mg/kg with biliary drainage group
# [27] = 12 h after ingestion, 60 mg/kg with biliary drainage group
# [28] = 24 h after ingestion, 20 mg/kg with biliary drainage group
# [29] = 24 h after ingestion, 60 mg/kg with biliary drainage group
# [30] = 36 h after ingestion, 20 mg/kg with biliary drainage group
# [31] = 36 h after ingestion, 60 mg/kg with biliary drainage group
# [32] = 48 h after ingestion, 20 mg/kg with biliary drainage group
# [33] = 48 h after ingestion, 60 mg/kg with biliary drainage group
# [34] = 20 mg/kg Amanita exitialis oral
compound,measurement,setting,value
"CC(C)[C@@H]1NC(=O)[C@H](C[C@@](C)(O)CO)NC(=O)[C@@H]2Cc3c([nH]c4ccccc34)SC[C@H](NC(=O)[C@@H]([C@H](O)C(=O)O)NC1=O)C(=O)N1C[C@@H](O)C[C@H]1C(=O)N[C@@H](C)C(=O)N2 [phallacidin] (cyclo(A[Trp(2-yl)][Leu(4R-OH,5-OH)]V[dAsp(3S-OH)]C[cisHyp]); thioether 2-6)",detection rate of peptide toxins in blood,[1],0%
same,detection rate of peptide toxins in blood,[2],0%
same,T1/2,[3],"0.62 ± 0.32 ^b,* h"
same,AUC (0–∞),[3],"2.08 ± 2.06 ^b,* µg/L × h"
same,CL/F,[3],"1.1 ± 0.86 ^b,* L/h/kg"
same,Cmax,[3],"0.85 ± 0.37 ^b,* µg/L"
same,Dose normalized AUC (0–∞),[3],"60.5 ± 60.2 ^b,*"
same,Dose normalized Cmax,[3],"24.8 ± 10.8 ^b,*"
same,MRT (0–∞),[3],"1.95 ± 0.73 ^b,* h"
same,Tmax,[3],1.38 ± 0.25 h
same,detection rate of peptide toxins in blood,[4],0%
same,detection rate of peptide toxins in blood,[5],33%
same,detection rate of peptide toxins in blood,[6],0%
same,detection rate of peptide toxins in blood,[7],33%
same,detection rate of peptide toxins in blood,[8],50%
same,detection rate of peptide toxins in blood,[9],100%
same,detection rate of peptide toxins in blood,[10],66%
same,detection rate of peptide toxins in blood,[11],100%
same,detection rate of peptide toxins in blood,[12],33%
same,detection rate of peptide toxins in blood,[13],100%
same,detection rate of peptide toxins in blood,[14],33%
same,detection rate of peptide toxins in blood,[15],50%
same,detection rate of peptide toxins in blood,[16],17%
same,detection rate of peptide toxins in blood,[17],50%
same,detection rate of peptide toxins in blood,[18],0%
same,detection rate of peptide toxins in blood,[19],33%
same,detection rate of peptide toxins in blood,[20],0%
same,detection rate of peptide toxins in blood,[21],17%
same,detection rate of peptide toxins in blood,[22],0%
same,detection rate of peptide toxins in blood,[23],0%
same,detection rate of peptide toxins in blood,[24],0%
same,detection rate of peptide toxins in blood,[25],0%
same,detection rate of peptide toxins in blood,[26],0%
same,detection rate of peptide toxins in blood,[27],0%
same,detection rate of peptide toxins in blood,[28],0%
same,detection rate of peptide toxins in blood,[29],0%
same,detection rate of peptide toxins in blood,[30],0%
same,detection rate of peptide toxins in blood,[31],0%
same,detection rate of peptide toxins in blood,[32],0%
same,detection rate of peptide toxins in blood,[33],0%
same,time at which toxins were detected in plasma after ingestion,,30 min
same,Vd/F,[3],1.77 ± 0.57 L/kg
CC[C@H](C)[C@@H]1NC(=O)CNC(=O)[C@@H]2Cc3c([nH]c4cc(O)ccc34)[S@+]([O-])C[C@H](NC(=O)CNC1=O)C(=O)N[C@@H](CC(=O)O)C(=O)N1C[C@H](O)C[C@H]1C(=O)N[C@@H]([C@@H](C)[C@@H](O)CO)C(=O)N2 [β-amanitin],detection rate of peptide toxins in blood,[1],0%
same,detection rate of peptide toxins in blood,[2],0%
same,T1/2,[34],1.29 ± 1.07 h
same,AUC (0–∞),[34],3.24 ± 1.49 µg·h/L
same,CL/F,[34],0.64 ± 0.42 L/h/kg
same,Cmax,[34],0.85 ± 0.33 µg/L
same,Dose normalized AUC (0–∞),[34],179 ± 82.4
same,Dose normalized Cmax,[34],57 ± 18.3
same,MRT (0–∞),[34],3.83 ± 1.02 h
same,Tmax,[34],1.63 ± 0.48 h
same,T1/2,[3],1.54 ± 0.71 h
same,AUC (0–∞),[3],"15.75 ± 4.27 ^a,b µg/L × h"
same,CL/F,[3],0.33 ± 0.09 L/h/kg
same,Cmax,[3],"5.18 ± 1.32 ^a,b µg/L"
same,Dose normalized AUC (0–∞),[3],222.3 ± 79.2
same,Dose normalized Cmax,[3],96 ± 24.4
same,MRT (0–∞),[3],3.89 ± 0.46 h
same,Tmax,[3],1.25 ± 0.29 h
same,detection rate of peptide toxins in blood,[4],0%
same,detection rate of peptide toxins in blood,[5],50%
same,detection rate of peptide toxins in blood,[6],33%
same,detection rate of peptide toxins in blood,[7],66%
same,detection rate of peptide toxins in blood,[8],100%
same,detection rate of peptide toxins in blood,[9],100%
same,detection rate of peptide toxins in blood,[10],100%
same,detection rate of peptide toxins in blood,[11],100%
same,detection rate of peptide toxins in blood,[12],100%
same,detection rate of peptide toxins in blood,[13],100%
same,detection rate of peptide toxins in blood,[14],100%
same,detection rate of peptide toxins in blood,[15],100%
same,detection rate of peptide toxins in blood,[16],100%
same,detection rate of peptide toxins in blood,[17],100%
same,detection rate of peptide toxins in blood,[18],100%
same,detection rate of peptide toxins in blood,[19],100%
same,detection rate of peptide toxins in blood,[20],83%
same,detection rate of peptide toxins in blood,[21],100%
same,detection rate of peptide toxins in blood,[22],83%
same,detection rate of peptide toxins in blood,[23],100%
same,detection rate of peptide toxins in blood,[24],66%
same,detection rate of peptide toxins in blood,[25],100%
same,detection rate of peptide toxins in blood,[26],33%
same,detection rate of peptide toxins in blood,[27],100%
same,detection rate of peptide toxins in blood,[28],0%
same,detection rate of peptide toxins in blood,[29],33%
same,detection rate of peptide toxins in blood,[30],0%
same,detection rate of peptide toxins in blood,[31],0%
same,detection rate of peptide toxins in blood,[32],0%
same,detection rate of peptide toxins in blood,[33],0%
same,time at which toxins were detected in plasma after ingestion,,30 min
same,Vd/F,[34],0.78 ± 0.63 L/kg
same,Vd/F,[3],1.38 ± 0.59 L/kg

# Source: PMC6024615, “Effect of Biliary Drainage on the Toxicity and Toxicokinetics of Amanita exitialis in Beagles” (Toxins, 2018)
